The values below come from PMC12384454, “Study of the Lipophilicity of Tetracyclic Anticancer Azaphenothiazines” (Biomolecules, 2025).

The conditions of data set [1]: standard for calibration curve; cited from earlier work.
The nature of data set [2]: RP-TLC lipophilicity (RM0, log PTLC, C0), silica gel RP-18F254, acetone/TRIS buffer pH 7.4. The note with it: for RM0: RP-TLC, RM extrapolated to 0% acetone, TRIS buffer pH 7.4; for log PTLC / chromatographic logP: from RM0 by calibration curve log PTLC = 1.2862RM0 + 0.2061; for C0: chromatography hydrophobic index, C0 = −RM0/b. The format is physicochemical. How it is done: In connection with this, in the next stage of the study, the parameters of lipophilicity of the tested compounds were determined experimentally. […] This technique was used to determine the retardation coefficient Rf for each compound in eight mobile phases consisting of acetone and Tris buffer in different volume ratios (50–85% acetone). Next, the Rf values were converted to the chromatographic parameter RM, and then the obtained values were extrapolated to 0% acetone content in the mobile phase obtaining the lipophilicity parameter RM0 (Table S2).
The parameter RM0 can be correlated to an experimental log P lipophilicity parameter of chemical molecules (log PTLC) by applying a calibration curve. The calibration curve was obtained by determining the Rf value for standard substances with a known log Plit value using the RP-TLC method under conditions analogous to those of the tested substances. After calculating the RM and RM0 values, the dependence of the log Plit parameter on the experimentally obtained RM0 values for standards was determined (Table 2).
The chromatographic parameter of lipophilicity was determined by means of Soczewiński–Wachtmeister’s method. […] The acetone ratio was 50 to 85% (v/v) in increments of 5%. The tested compounds in the form of an ethanol solution at a concentration of 2.0 mg/mL each were spotted on chromatographic plates at an amount of 2 µL each. Before analysis, the chromatography chamber (Camag, Switzerland) was saturated with the mobile phase (50 mL) for 30 min. After development at 20 ± 2 °C and subsequent drying, the chromatograms were observed under UV light at 254 nm by using a Camag UV lamp (Muttenz, Switzerland). Each analysis was performed in triplicate. The average value of the retardation factor (Rf) was used to calculate RM using Equation (1):(1) RM=log(1−Rf/Rf)
In addition, the chromatographic parameter of lipophilicity RM0 and b value allowed the determination of the chromatography hydrophobic index C0 by using the following formula:(3) C0=− RM0/b

Another data set relates to PC3. Also on record: method as in earlier work. The note with it: cited from earlier work; for IC50: MTT assay; for SI PC3: selectivity index vs HaCaT. A general note: Tetrazolium dyes change colour on reduction, which living cells bring about.
In another data set the test system is MDA. Details: method as in earlier work. The note with it: cited from earlier work; for IC50: MTT assay; for SI MDA: selectivity index vs HaCaT.
The test system of a further data set is HaCaT cells. The note with it: MTT assay, normal cells; cited from earlier work.
The test system of another data set is MiaPaCa-2. Also on record: method as in earlier work. The note with it: cited from earlier work; for IC50: MTT assay; for SI MiaPaCa-2: selectivity index vs HaCaT.
The subject of a further data set is A549 cells. As to conditions: cited from earlier work; for IC50: MTT assay.
Another data set has as its system HCT-116 cells. The note with it: cited from earlier work; for IC50: MTT assay, read-out: IC50 HCT116; for SI HCT116: selectivity index vs HaCaT.
The subject of data set [3] is standard strains of staphylococci. As to conditions: cited from earlier work; for antibacterial activity: mainly against standard strains of staphylococci.

With `CC(=O)Nc1ccccc1` [acetanilide, reference compound], in data set [1], the “log Plit” value was 1.21 [35]. Besides, in data set [2], the RM0 is given as 0.78 and the “log PTLC” value is reported as 1.21.
On to `c1ccc2cc3ccccc3cc2c1` [anthracene, reference compound], for which the “log Plit” value in [1] was 4.45 [36].
With `O=C(NCCCl)NCCCN1c2cc(Cl)ccc2Sc2cc3ccccc3nc21` [compound 9], in the data set with PC3, the IC50 (commonly the concentration at which inhibition is half-maximal) is 34.8 ± 9.8 µM and the “SI PC3” value is on record as 2.8. In the data set with MDA, the IC50 is 48.6 ± 7.3 µM and the “SI MDA” value is reported as 2.0. Also, the IC50 in the data set with HaCaT cells is less than 100 µM. Further, in the data set with MiaPaCa-2, the IC50 is 23.2 ± 2.7 µM and the “SI MiaPaCa-2” value is 4.3. Moreover, in [2], the RM0 is reported as 3.47; the C0 is listed as 76.43; the chromatographic logP – broadly, lipophilicity estimated from chromatographic retention – was 4.66. Moreover, the IC50 with A549 cells is 9.3 ± 1.2 µM. Also, the “SI A549” value in the data set on A549 cells (selectivity index vs HaCaT) is 10.7. In addition, in the data set with HCT-116 cells, the IC50 was 10.4 ± 1.6 µM and the “SI HCT116” value is reported as 8.8. Moreover, the antibacterial activity result in data set [3] is “moderate antibacterial activity”.
`O=C(NCCCl)NCCCCN1c2cc(Cl)ccc2Sc2cc3ccccc3nc21` [compound 15]: in the data set with PC3, the IC50 is 76.6 ± 9.8 µM and the “SI PC3” value is 0.1. For the same molecule, in the data set with MDA, the 50% inhibitory concentration (IC50) is 7.4 ± 1.2 µM and the “SI MDA” value is listed as 0.1. Also, the IC50 with HaCaT cells was 1.1 ± 0.3 µM. In the data set on MiaPaCa-2, the IC50 was 6.4 ± 2.4 µM and the “SI MiaPaCa-2” value is listed as 0.2. Further, in data set [2], the RM0 was 3.59, the C0 is 76.22 and the chromatographic logP was 4.82. Besides, the IC50 in the data set on A549 cells is 6.98 µM. In addition, in the data set with HCT-116 cells, the IC50 was 11.3 ± 2.2 µM and the “SI HCT116” value is on record as 0.1. In [3], the antibacterial activity entry is “moderate antibacterial activity”. Moreover, in [3] (standard strains), the MIC – broadly, the smallest concentration in the dilution series that meets the test's criterion for growth inhibition – was 2 to 8 µg/mL.
Turning to `Clc1ccc(C(c2ccc(Cl)cc2)C(Cl)(Cl)Cl)cc1` [p,p’-DDT, reference compound], the “log Plit” value in [1] is 6.38 [37]. Further, in data set [2], the RM0 is on record as 4.69 and the “log PTLC” value was 6.24.
